These results are taken from ChEMBL document CHEMBL5725801, “Fused heterocyclic compounds as CaM kinase inhibitors” (2018).

Structures are written as SMILES. Values joined by “and” are separate entries in the source; they are usually repeats but may differ in a detail not shown here. Identical values can stand only once.

The assay can be described thus: CaMKII Cell-Based Activity: CaMKII activity in neonatal rat ventricular myocytes (NRVM) was measured by monitoring the phosphorylation level of phospholamban using high-content imaging. NRVMs were plated in a clear bottom 384-well plate in medium supplemented with 10% fetal bovine serum (FBS) and incubated at 37° C., 5% CO2 overnight. The medium was changed to a serum-free medium and compounds were dosed to the cells. The cells were incubated at 37° C., 5% CO2 for 4 hours and were then treated with 100 nM ATX-II (Alomone Labs) to activate CaMKII. 10 minutes after the addition of ATX-II, the cells were fixed with 4% formaldehyde followed by permeabilization with 0.1% triton X100. The fixed cells were stained with an anti-phospho-phospholamban primary antibody (Santa Cruz Biotechnology) and an Alexa488-labeled anti-rabbit IgG secondary antibody (Life Technologies Corporation) as well as Hoechst 33342 (Life Technologies Corporation). The cells were imaged using an ArrayScan VTI (Cellomics) and analyzed for cells containing a positive fluorescent signal at 485 nm, reported as % responder. The % responders were plotted against the compound concentration to determine the compounds EC50.

As a reminder, the EC50 is the midpoint of the concentration-response curve. Lower therefore signals higher potency in that assay. With `CCN(CC)CCNC(=O)c1ccnc(-c2cnn3ccc(-c4cccs4)nc23)c1`, the EC50 is 17.1 nM. For `CCN(CC)[C@@H](C)CNC(=O)c1ccnc(-c2cnn3ccc(-c4cccs4)nc23)c1` the value was 21.4 nM; for `CC(C)C(N)CNC(=O)c1ccnc(-c2cnn3ccc(-c4ccccc4)nc23)c1` (configuration not stated), 44.1 nM; for `C[C@@H](CNC(=O)c1ccnc(-c2cnn3ccc(-c4cccs4)nc23)c1)NCCO`, 301 nM. Turning to `NC[C@H]1CCCN1C(=O)c1ccnc(-c2cnn3ccc(-c4cccs4)nc23)c1`, the EC50 was 58.3 nM.

For the molecule `O=C(NC[C@@H]1CCCN1)c1ccnc(-c2cnn3ccc(-c4cccs4)nc23)c1`, it took 125 nM to reach a half-maximal effect (EC50). The same measure for `CCN(CC)C(C)CNC(=O)c1ccnc(-c2cnn3ccc(-c4ccccc4)nc23)c1` (configuration not stated): 103 nM.

`CC(C)NC(CNC(=O)c1ccnc(-c2cnn3ccc(-c4ccccc4)nc23)c1)C(C)C` (configuration not stated) registered an EC50 of 152 nM. `CCC(CNC(=O)c1ccnc(-c2cnn3ccc(-c4cccs4)nc23)c1)NC(C)C` (configuration not stated) displayed an EC50 of 60 nM. The same measure for `C[C@@H](CNC(=O)c1ccnc(-c2cnn3ccc(-c4cccs4)nc23)c1)NCCF`: 95.2 nM; for `O=C(NCC1CCCCN1)c1ccnc(-c2cnn3ccc(-c4cccs4)nc23)c1` (configuration not stated): 288 nM. In turn, `O=C(c1ccnc(-c2cnn3ccc(-c4ccccc4)nc23)c1)N1CCCCC12CCCNC2` (configuration not stated) displayed an EC50 of 45.3 nM. `C[C@@H](CNC(=O)c1ccnc(-c2cnn3ccc(-c4ccccc4)nc23)c1)NCc1ncccn1`: the half-maximal effective concentration (EC50) came out at 779 nM. This EC50 lies about 17-fold higher than the previous one. `CCN(CC)[C@@H](C)CNC(=O)c1ccnc(-c2cnn3ccc(-c4ccccc4)nc23)c1` showed an EC50 of 29 nM. Compared with the last molecule, the EC50 is about 27-fold lower. The same measure for `N[C@H]1CCC[C@@H]1NC(=O)c1ccnc(-c2cnn3ccc(-c4ccccc4)nc23)c1`: 287 nM; for `CN(C)CCNC(=O)c1ccnc(-c2cnn3ccc(-c4ccccc4)nc23)c1`: 320 nM. Turning to `O=C(NC[C@@H]1C[C@H](F)CN1)c1ccnc(-c2cnn3ccc(-c4cccs4)nc23)c1`, the midpoint of the response, the EC50, lay at 386 nM. This EC50 and that of the molecule before are within 1.5-fold of each other. For the molecule `CCN(CC)[C@@H](CO)CNC(=O)c1ccnc(-c2cnn3ccc(-c4ccccc4)nc23)c1`, it took 61.9 nM to reach a half-maximal effect (EC50). On to `CC[C@@]1(CNC(=O)c2ccnc(-c3cnn4ccc(-c5ccccc5)nc34)c2)CCCN1`, for which the response was half-maximal at 279 nM (EC50). For `CCC[C@@]1(CNC(=O)c2ccnc(-c3cnn4ccc(-c5cccs5)nc34)c2)CCCN1` the value was 99.2 nM; for `CC[C@]1(CNC(=O)c2ccnc(-c3cnn4ccc(-c5ccccc5)nc34)c2)CCCN1`, 143 nM; for `CCCN[C@@H](C)CNC(=O)c1ccnc(-c2cnn3ccc(-c4cccs4)nc23)c1`, 65.2 nM. As to `C[C@H](N)CNC(=O)c1ccnc(-c2cnn3ccc(-c4cccs4)nc23)c1`, the EC50 came out at 62.2 nM. `C[C@@H](CNC(=O)c1ccnc(-c2cnn3ccc(-c4cccs4)nc23)c1)NCC1CC1` gave an EC50 of 15.1 nM. In turn, `O=C(c1ccnc(-c2cnn3ccc(-c4cccs4)nc23)c1)N1C2CCNCC1CC2` (configuration not stated) returned a half-maximal effective concentration (EC50) of 187 nM. Compared with the last molecule, the EC50 is about 12-fold higher. On to `O=C(NC[C@]1(CC2CC2)CCCN1)c1ccnc(-c2cnn3ccc(-c4cccs4)nc23)c1`, for which the response was half-maximal at 66.9 nM (EC50). Turning to `CCCC(N)CNC(=O)c1ccnc(-c2cnn3ccc(-c4ccccc4)nc23)c1` (configuration not stated), a half-maximal effect (EC50) was put at 11.8 nM. `CC(CN)NC(=O)c1ccnc(-c2cnn3ccc(-c4ccccc4)nc23)c1` (configuration not stated) displayed an EC50 of 175 nM. Turning to `CCN(CC)C(CNC(=O)c1ccnc(-c2cnn3ccc(-c4ccccc4)nc23)c1)C(C)C` (configuration not stated), it took 37.2 nM to reach a half-maximal effect (EC50). Consider `O=C(NC[C@@H]1CCN1)c1ccnc(-c2cnn3ccc(-c4cccs4)nc23)c1`, for which the EC50 was 132 nM. As for `CCN[C@@H](C)CNC(=O)c1ccnc(-c2cnn3ccc(-c4cccs4)nc23)c1`, the EC50 was found to be 33 nM. This EC50 is about 4-fold lower than that of the molecule before. For `CCC(N)CNC(=O)c1ccnc(-c2cnn3ccc(-c4ccccc4)nc23)c1` (configuration not stated) the value was 80.9 nM. For `NC[C@H]1CC(F)(F)CN1C(=O)c1ccnc(-c2cnn3ccc(-c4cccs4)nc23)c1` the value was 316 nM; for `CCN(CC(F)F)[C@@H](C)CNC(=O)c1ccnc(-c2cnn3ccc(-c4cccs4)nc23)c1`, 197 nM; for `O=C(c1ccnc(-c2cnn3ccc(-c4cccs4)nc23)c1)N1CC2CCC(C1)NC2` (configuration not stated), 95.4 nM.

In turn, `CCCC(CNC(=O)c1ccnc(-c2cnn3ccc(-c4ccccc4)nc23)c1)N(CC)CC` (configuration not stated) came in with an EC50 of 31.2 nM.

Regarding `N[C@H]1CCCN(C(=O)c2ccnc(-c3cnn4ccc(-c5cccs5)nc34)c2)C1`, the EC50 is 217 nM. On to `CCC(C)N[C@@H](C)CNC(=O)c1ccnc(-c2cnn3ccc(-c4ccccc4)nc23)c1` (some centres not stated), for which it took 25.3 nM to reach a half-maximal effect (EC50). This EC50 lies about 8.6-fold lower than the previous one. The molecule `CCN(CC)C(C)CNC(=O)c1ccnc(-c2cnn3ccc(-c4cccs4)nc23)c1` (configuration not stated) yielded an EC50 of 35.4 nM. The EC50 values of the last two molecules are within 1.5-fold of each other. With `CC1(C)CNC1CNC(=O)c1ccnc(-c2cnn3ccc(-c4ccccc4)nc23)c1` (configuration not stated), a half-maximal response (EC50) required 166 nM. On to `CC(C)C(CNC(=O)c1ccnc(-c2cnn3ccc(-c4ccccc4)nc23)c1)NCC1CC1` (configuration not stated), for which a half-maximal effect (EC50) was put at 88.8 nM. This EC50 is about 1.9-fold lower than that of the molecule before. Molecule `C[C@@H](NC(=O)c1ccnc(-c2cnn3ccc(-c4cccs4)nc23)c1)[C@@H]1CCCN1` yielded an EC50 of 518 nM. In the case of `O=C(c1ccnc(-c2cnn3ccc(-c4ccccc4)nc23)c1)N1CCC2CNCC21` (configuration not stated), the EC50 stood at 48.5 nM. The same measure for `O=C(c1ccnc(-c2cnn3ccc(-c4ccccc4)nc23)c1)N1C2CCCC1CNCC2` (configuration not stated): 51.6 nM; for `CCCNC(CC)CNC(=O)c1ccnc(-c2cnn3ccc(-c4ccccc4)nc23)c1` (configuration not stated): 8.15 nM; for `CCN[C@H](CNC(=O)c1ccnc(-c2cnn3ccc(-c4ccccc4)nc23)c1)COc1ncccn1`: 45.9 nM. Take `O=C(NCC1CCCCCN1)c1ccnc(-c2cnn3ccc(-c4cccs4)nc23)c1` (configuration not stated): the EC50 came out at 347 nM. `CCC(CNC(=O)c1ccnc(-c2cnn3ccc(-c4ccccc4)nc23)c1)NCC1CC1` (configuration not stated) registered an EC50 of 76.7 nM. For `CCN[C@@H](CO)CNC(=O)c1ccnc(-c2cnn3ccc(-c4ccccc4)nc23)c1`, it took 243 nM to reach a half-maximal effect (EC50). Take `CCNC(C)(C)CNC(=O)c1ccnc(-c2cnn3ccc(-c4ccccc4)nc23)c1`: the EC50 came to 67.4 nM. The same measure for `CCN(CCN)C(=O)c1ccnc(-c2cnn3ccc(-c4ccccc4)nc23)c1`: 169 nM; for `O=C(c1ccnc(-c2cnn3ccc(-c4cccs4)nc23)c1)N1CC2CCC[C@@H](C1)NC2`: 54.3 nM; for `N[C@@H](CO)CNC(=O)c1ccnc(-c2cnn3ccc(-c4ccccc4)nc23)c1`: 334 nM. The molecule `N[C@H]1CCN(C(=O)c2ccnc(-c3cnn4ccc(-c5cccs5)nc34)c2)C1` gave an EC50 of 172 nM. Turning to `C[C@@H]1CNCCN1C(=O)c1ccnc(-c2cnn3ccc(-c4cccs4)nc23)c1`, the response was half-maximal at 208 nM (EC50).

Turning to `CC(C)(N)CNC(=O)c1ccnc(-c2cnn3ccc(-c4ccccc4)nc23)c1`, the EC50 was determined as 110 nM. Compared with the last molecule, the EC50 is about 1.9-fold lower. For `CC(C)N[C@@H](C)CNC(=O)c1ccnc(-c2cnn3ccc(-c4cccs4)nc23)c1`, the EC50 is 166 nM. This EC50 is about 1.5-fold higher than that of the molecule before.

`CN1CCC[C@H]1CNC(=O)c1ccnc(-c2cnn3ccc(-c4cccs4)nc23)c1` gave an EC50 of 173 nM. This EC50 and that of the molecule before are within 1.5-fold of each other.

`CCN[C@@H](C)CNC(=O)c1ccnc(-c2cnn3ccc(-c4ccccc4)nc23)c1` yielded an EC50 of 56.1 nM. The molecule `N[C@H]1C[C@@H]2CCC[C@H]1N2C(=O)c1ccnc(-c2cnn3ccc(-c4ccccc4)nc23)c1` gave a concentration for a half-maximal effect (EC50) of 74 nM.

Turning to `O=C(NC[C@H]1CCN1)c1ccnc(-c2cnn3ccc(-c4cccs4)nc23)c1`, a half-maximal response (EC50) required 126 nM.

The molecule `O=C(NCC1CCCCN1)c1ccnc(-c2cnn3ccc(-c4ccccc4)nc23)c1` (configuration not stated) came in with an EC50 of 955 nM. Regarding `CCN[C@H](C)CNC(=O)c1ccnc(-c2cnn3ccc(-c4ccccc4)nc23)c1`, a half-maximal effect (EC50) was put at 73.1 nM. Compared with the last molecule, the EC50 is about 13-fold lower. For `O=C(c1ccnc(-c2cnn3ccc(-c4cccs4)nc23)c1)N1CC2CNC(COC2)C1` (configuration not stated) the value was 259 nM; for `CCN[C@H](C)CNC(=O)c1ccnc(-c2cnn3ccc(-c4cccs4)nc23)c1`, 34.8 nM; for `CCN(CC)[C@H](CNC(=O)c1ccnc(-c2cnn3ccc(-c4ccccc4)nc23)c1)COc1ncccn1`, 47.3 nM. As to `C[C@H](N)[C@@H]1CCCCN1C(=O)c1ccnc(-c2cnn3ccc(-c4ccccc4)nc23)c1`, the EC50 is 45.6 nM.

Molecule `CCNC(CC)CNC(=O)c1ccnc(-c2cnn3ccc(-c4ccccc4)nc23)c1` (configuration not stated) returned an EC50 of 46.8 nM. `N[C@@H]1CCC[C@H]1NC(=O)c1ccnc(-c2cnn3ccc(-c4ccccc4)nc23)c1` displayed an EC50 of 259 nM. The same measure for `CC[C@@]1(CNC(=O)c2ccnc(-c3cnn4ccc(-c5cccs5)nc34)c2)CCCN1`: 129 nM; for `C[C@@]1(CNC(=O)c2ccnc(-c3cnn4ccc(-c5cccs5)nc34)c2)CCCN1`: 142 nM.

Regarding `CCC(N)CNC(=O)c1ccnc(-c2cnn3ccc(-c4cccs4)nc23)c1` (configuration not stated), the EC50 was found to be 22.9 nM. Take `CCNC(CNC(=O)c1ccnc(-c2cnn3ccc(-c4ccccc4)nc23)c1)C(C)C` (configuration not stated): a half-maximal effect (EC50) was put at 107 nM. Regarding `N[C@H]1CCN(C(=O)c2ccnc(-c3cnn4ccc(-c5ccccc5)nc34)c2)C1`, a half-maximal effect (EC50) was put at 200 nM. As for `C[C@@H](CNC(=O)c1ccnc(-c2cnn3ccc(-c4cccs4)nc23)c1)NCC(F)F`, the EC50 is 443 nM and 149 nM.

The molecule `CCN[C@@H](CC)CNC(=O)c1ccnc(-c2cnn3ccc(-c4cccs4)nc23)c1` registered an EC50 of 43.3 nM. Molecule `CN(C)CCNC(=O)c1ccnc(-c2cnn3ccc(-c4cccs4)nc23)c1` gave an EC50 of 116 nM.

Molecule `N[C@@H]1CCC[C@@H]1NC(=O)c1ccnc(-c2cnn3ccc(-c4ccccc4)nc23)c1` had an EC50 of 303 nM. The molecule `CC(C)C[C@@]1(CNC(=O)c2ccnc(-c3cnn4ccc(-c5cccs5)nc34)c2)CCCN1` yielded an EC50 of 66 nM. In turn, `CCCNC(CNC(=O)c1ccnc(-c2cnn3ccc(-c4ccccc4)nc23)c1)C(C)C` (configuration not stated) returned an EC50 of 42.9 nM. `C[C@@H](CNC(=O)c1ccnc(-c2cnn3ccc(-c4cccs4)nc23)c1)NCC(F)(F)F` came in with an EC50 of 717 nM.

`O=C(NCC12CCCN1CCC2)c1ccnc(-c2cnn3ccc(-c4cccs4)nc23)c1` registered an EC50 of 41.5 nM.
